Residues, ends and D or L forms follow the SMILES beside them.
Tests used:
[1] = system: binding of PMN to endothelial cells; experiment: Binding of phorbol dibutyrate-stimulated PMN to endothelial cells (binding assessed by microscopy); type: cell-based; conditions: indicated doses (Figures 3 and 4, not given); human umbilical cord endothelial cells; 37°C for 15 min
Protocol: This example illustrates that the method of the invention can be used to inhibit the binding of stimulated PMN to human endothelial cells.
The experiments are conducted as follows. Purified human PMN were stimulated for 15 min. with 300 ng/ml of phorbol dibutyrate. This stimulation is necessary to enable PMN to bind, and mimics the stimulation of PMN at sites of inflammation. Endothelial cells were isolated from human umbilical cords by standard methods [Pawlowski et al., Proc. Natl. Aca. Sci., 82, 8202 (1985)] and were cultivated on fibronectin-coated tissue culture surfaces to confluence. […] PMN were washed and combined with the indicated doses of Arg-Leu-Leu-Pro-Gly-Gly-Leu-Gln-Gln-Gly-Arg-Gly- Asp-Ala-Val-Gly-Pro-Glu-Arg-Gly-Cys (Pep63) in Figure 3, or with the indicated doses of Gly-Gln-Gln-His-His-Leu-Gly-Gly-Ala-Lys-Gln-Ala-Gly-Asp-Val (G15) in Figure 4. The cells were then added to the endothelium and incubated at 37°C for 15 min. Unattached PMN were then washed away and the binding was assessed by microscopy.

[2] = system: binding of PMN to fibrinogen; experiment: Binding of phorbol dibutyrate-stimulated PMN to fibrinogen-coated surfaces (adherent cells counted by phase contrast microscopy); type: cell-based, human; conditions: 2 mg/ml of synthetic peptide; PMN stimulated with 300 ng/ml phorbol dibutyrate; 20 min at 0°C then 30 min at 37°C; Figure 1
Protocol: This example illustrates that the method of the invention can be used to inhibit binding of stimulated PMN to fibrinogen-coated surfaces. Figure 1 illustrates the level of inhibition of binding by incubation with monoclonal antibodies against CD11b/CD18 and with the peptide L10, and Figure 2 illustrates the dose dependence of this inhibition.
Details of the experiments are as follows. Purified human PMN were stimulated for 15 min. with 300 ng/ml of phorbol dibutyrate. This stimulation is necessary to enable PMN to bind, and mimics the stimulation of PMN at sites of inflammation. Culture wells were coated with fibrinogen or human serum albumin by incubating 1 mg/ml of these proteins with the culture surfaces for 1 hr. at 20°C. The PMN were then washed and added to culture wells coated with fibrinogen in the presence of 10µg/ml of various monoclonal antibodies or 2 mg/ml of synthetic peptides. PMN were allowed to settle onto the surface for 20 min. at 0°C, then were warmed to 37°C for 30 min. The surfaces were then washed and the number of cells adherent were counted by phase contrast microscopy.

SMILES	inhibition of the binding of PMN to endothelial cells [1]	binding of PMN to fibrinogen [2]
CC(C)C[C@H](NC(=O)[C@H](Cc1c[nH]cn1)NC(=O)[C@H](Cc1c[nH]cn1)NC(=O)[C@H](CCC(N)=O)NC(=O)[C@H](CCC(N)=O)NC(=O)CN)C(=O)NCC(=O)NCC(=O)N[C@@H](C)C(=O)N[C@@H](CCCCN)C(=O)N[C@@H](CCC(N)=O)C(=O)N[C@@H](C)C(=O)NCC(=O)N[C@@H](CC(=O)O)C(=O)N[C@H](C(=O)O)C(C)C [G15, Gly-Gln-Gln-His-His-Leu-Gly-Gly-Ala-Lys-Gln-Ala-Gly-Asp-Val] (H-GQQHHLGGAKQAGDV-OH)	dose dependence of inhibition	
CC(C)C[C@H](N)C(=O)NCC(=O)NCC(=O)N[C@@H](C)C(=O)N[C@@H](CCCCN)C(=O)N[C@@H](CCC(N)=O)C(=O)N[C@@H](C)C(=O)NCC(=O)N[C@@H](CC(=O)O)C(=O)N[C@H](C(=O)O)C(C)C [L10, Leu-Gly-Gly-Ala-Lys-Gln-Ala-Gly-Asp-Val] (H-LGGAKQAGDV-OH)		strongly inhibits binding
CC(C)C[C@H](NC(=O)CNC(=O)CNC(=O)[C@@H]1CCCN1C(=O)[C@H](CC(C)C)NC(=O)[C@H](CC(C)C)NC(=O)[C@@H](N)CCCNC(=N)N)C(=O)N[C@@H](CCC(N)=O)C(=O)N[C@@H](CCC(N)=O)C(=O)NCC(=O)N[C@@H](CCCNC(=N)N)C(=O)NCC(=O)N[C@@H](CC(=O)O)C(=O)N[C@@H](C)C(=O)N[C@H](C(=O)NCC(=O)N1CCC[C@H]1C(=O)N[C@@H](CCC(=O)O)C(=O)N[C@@H](CCCNC(=N)N)C(=O)NCC(=O)N[C@@H](CS)C(=O)O)C(C)C [Pep63] (H-RLLPGGLQQGRGDAVGPERGC-OH)	dose dependence of inhibition	

From patent publication EP0333517A2, “Method and agent for inhibiting the binding of human polymorphonuclear leukocytes to endothelium and compositions therefor” (THE ROCKEFELLER UNIVERSITY, priority 1988, dated 1989)
